Broadly, the logP is a log measure of how a compound divides between an organic and an aqueous phase.

The source of these data is patent US5703056A, “Non-invasive imaging of gene transfer” (priority 1995, dated 1997).

Each structure is given as a SMILES string. Like-named read-outs stand apart in the source and are kept apart here.

Series [1] can be described thus: physchem. Format: physicochemical. The settings on record: octanol/water. The text has this:
It is known that brain capillary permeability for many compounds is related to their octanol/water partition coefficient (P) and molecular weight. [[…]. Med. […] [Dischino, […]., and […]. Nucl. […] […]. Drug transfer across the blood brain barrier. In: Topics in Pharmaceutical Sciences. Ed.: Breimer, D. D., and […]. […] […]., and Rapoport, S. I. In: Handbook of Physiology. The Cardiovascular System. Microcirculation. Bethesda, Md.: Am. Physiol. Soc., sect. 2, Vol. IV, […]. 969-1000, 1984; […]. In: Implications of Blood-Brain Barrier and Its Manipulation. Basic Science Aspects. Ed. by Neuwelt, E., New York: Plenum, Vol. 1, […]. 132-55, 1988] […] [Xu, […]., Knaus, E. E., and Wiebe, L. I. In: Advances in Radiopharmacology. […]., Snowdon, G. M., Boniface, G. R., Univ. of Wollongong Printing Service, Wollongong, Australia, pp. 283-298, 1990] […] […]).

The conditions of series [2]: cited from earlier work; for lipophilicity and blood-brain barrier permeability compared with FIAU: compared with FIAU (FAIU [sic]), Iwashina et al. 1988.
The nature of series [3]: Calculated permeability surface area product (PS) of the cerebral capillaries. The arrangement: unit not given here. The conditions noted are these: for PS*: calculated from measured log P and MW: log(PS)=5.2+log(P·Dm); for PS+: calculated from published log P and MW: log(PS)=5.2+log(P·Dm). The text has this:
Passage of the nucleosides across the blood brain barrier (BBB) is an important factor to consider in the design of radiolabelled 2'-fluoro-nucleoside analogues for imaging HSV1-TK expression in the brain. […] It is known that brain capillary permeability for many compounds is related to their octanol/water partition coefficient (P) and molecular weight. [Levin, V. N. J. Med. Chem., 23: 682-4, 1980] Several authors have described a relationship between the brain capillary permeability and log P or log P·Dm, where Dm is a measure of diffusibility. […] [Dischino, D. D., Welch, M. J., Kilbourn, M. N., and Raichle, M. E., J. Nucl. Med., 24: 1030-8, 1983] […] Fenstermacher, J. D. Drug transfer across the blood brain barrier. In: Topics in Pharmaceutical Sciences. Ed.: Breimer, D. D., and Speiser, P. Amsterdam: Elsevier, pp. 143-54, 1983; Fenstermacher, J. D., and Rapoport, S. I. In: Handbook of Physiology. The Cardiovascular System. Microcirculation. Bethesda, Md.: Am. Physiol. Soc., sect. 2, Vol. IV, pt. 2, chapt. 21, p. 969-1000, 1984; Fenstermacher, J. D. In: Implications of Blood-Brain Barrier and Its Manipulation. Basic Science Aspects. Ed. by Neuwelt, E., New York: Plenum, Vol. 1, Chapt. 6, pp. 132-55, 1988]

The subject of series [4] is RG2TK+ and RG2 tumors. In words: Tissue sampling of FIAU- and IUdR-derived radioactivity in i.c. and s.c. RG2TK+ and RG2 tumors. Format: in vivo, rat. The settings on record: 24 h; for Sensitivity* (uptake in RG2TK+ tumor - uptake in RG2 tumor)/(HSV1TK mRNA/S28 RNA IOD in RG2TK+ cells): percent dose per gram. As to the method: Animal preparation and tumor inoculation Two male Fisher 344 rats weighing 250±20 g were anesthetized with a gas mixture consisting of 2% Isoflurane, 70% nitrous oxide and 30% oxygen. A 2% lidocaine gel was applied to the ears and the head was fixed with a stereotaxic device. After midline scalp incision, a burr hole was made through the skull 1 mm posterior and 3 mm lateral to the bregma. The tumor cell suspensions were aspirated into a 50 μl gas tight Hamilton syringe (Ga. 25) and attached to a stereotaxic device. The syringe needle was then inserted 6 mm deep into the caudate nucleus and the cell suspension (10^5 cells in 10 μl) was slowly injected over 2 minutes. RG2TK+ cells were injected into the left hemisphere, and RG2 cells were injected into the right hemisphere. Bone wax was applied to cover the skull defect and the scalp was closed with 4.0 silk suture. Subcutaneous inoculations (10^6 cells in 50 μl) were also performed (RG2TK+ cells into the left flank and RG2 cells into the right flank). After the procedure, the animals were marked and placed in standard cages with water and Rodent LabChow #5001 (Purina Mills, Inc.) ad libitum. Comparison of different "marker substrates" for identifying HSV1-TK expression in animals After 10 days of tumor growth, both animals received i.v. injections of [^123 I]-IUdR (400 uCi) and [^14 C]-FIAU (10 uCi). Radioactivity was allowed to clear from the body over 24 hours to reduce tissue background activity, predominantly due to radiolabelled iodide, the major metabolite of [^123 I]-IUdR. [Tjuvajev, J. G., Muraki, A., Ginos, J., Berk, J., Koutcher, J., Ballon, D., Beattie, B., Finn, R., and Biasberg, R., J. Nucl. Med., 34: 1152-62, 1993; Tjuvajev, J. G., Macapinlac, H. A., Daghighian, F., Scott, A. M., ginos, J. Z., Finn, R. D., Kothari, P., Desai, R., Zhang, Z., Beattie, B., Graham, M., Larson, S., and Blasberg, R. G., J. Nucl. Med., 35: 1407-17, 1994] The rats were killed at 24 hours under anesthesia; samples of tumor and adjacent tissue were disected and weighed, blood and plasma were obtained, and radioactivity was measured. Decay corrected ^123 I-radioactivity was assayed in a Packard AutoGamma 5550 Spectrometer; samples were stored in a refrigerator for 1 week to allow for ^123 I decay (>12 half lives) and ^14 C-radioactivity was measured in a Packard B1600 TriCarb beta spectrometer using external standard quench correction. Sample radioactivity was expressed as a percent of administered dose per gram of tissue of per unit volume of fluid.

Series [5] has as its target T1, HSV1-TK (Human alphaherpesvirus 1 strain 17, UniProt P0DTH5). The series is described as follows: Accumulation of radiolabelled marker substrates in RG2TK+ transduced and RG2 wild-type cells, normalized to TdR. Format: cell-based, herpes simplex virus. As to the method: Source of radiolabelled "marker substrates". […] No carrier-added 5-[^123 I]-deoxyuridine (IUdR) was prepared by reacting 2-deoxyuridine (UdR) with carrier-free ^123 I-labelled sodium iodide in an iodogen coated reaction vial.
Comparison of "marker substrates" for identifying HSV1-tk gene expression in tissue culture. […] Each of these substrates were developed for or used as an anti-viral agent; they are phosphorylated by HSV1-TK and can be radiolabelled for noninvasive imaging.
Wild-type (nontransduced) RG2 cells were studied as a reference control. […] The cells were dislodged from the Petri dishes with a soft scraper, poured into 15 ml conical tubes, centrifuged and the medium aspirated. The tubes were cut to facilitate removing cells; they were blotted, placed in pre-weighed vials, weighed and prepared for counting. Samples were assayed for ^3 H- and ^14 C-radioactivity using a Packard B1600 TriCarb beta spectrometer using dual-channel and external standard splash and quench correction techniques. The medium was also counted before and following incubation. The data was expressed as a harvested cell-to-medium concentration ratio (dpm/g cells.div.dpm/ml medium).
(§1) Data analysis. […] These two related measures are useful to evaluate the intensity of the images (e.g., high "sensitivity") and the ability to differentiate between HSV1-TK and endogenous-TK in the images (e.g., high "selectivity"). The "selectivity" measure is not interpreted as a relative sensitivity (i.e., a value of 1 indicating equal sensitivity) of the substrate to HSV1-TK vs. endogenous-TK. […] They are intended for the direct comparison of substrates only.

Series [6] deals with T1, HSV1-TK. In words: Single 120 minute paired accumulation of FIAU and IUdR by RG2TK+ and RG2 cells. Format: cell-based, herpes simplex virus. The settings on record: Data from FIG. 6A. The protocol:
The processing of cells and incubation medium was the same as that described above. A portion of the harvested cells was also processed for acid-insoluble (10% TCA) radioactivity. Decay corrected ^123 I-radioactivity was measured in a Packard AutoGamma 5550 Spectrometer. Samples were stored for 1 week to allow for ^123 I decay (12 half lives), and recounted afterwards in the Packard B1600 TriCarb beta spectrometer to determine ^3 H- and ^14 C-radioactivity.
All radioactivity measurements were expressed as a percent of administered dose per gram of tissue or per unit volume of fluid as described above.
as §1

The mark [7] stands for this setting: log P values published by Xu, et al.

T1 sequence (P0DTH5 whole entry): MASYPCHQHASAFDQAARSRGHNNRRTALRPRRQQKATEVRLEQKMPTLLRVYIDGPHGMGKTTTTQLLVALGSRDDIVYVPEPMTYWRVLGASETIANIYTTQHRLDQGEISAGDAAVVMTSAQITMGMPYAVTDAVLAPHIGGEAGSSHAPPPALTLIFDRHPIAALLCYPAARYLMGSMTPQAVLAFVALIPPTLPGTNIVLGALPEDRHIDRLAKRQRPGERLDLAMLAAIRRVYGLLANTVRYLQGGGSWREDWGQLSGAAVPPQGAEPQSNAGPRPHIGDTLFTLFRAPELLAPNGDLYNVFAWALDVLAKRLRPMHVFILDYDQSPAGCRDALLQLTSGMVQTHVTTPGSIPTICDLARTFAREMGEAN

With `Cc1cn([C@H]2C[C@H](O)[C@@H](CO)O2)c(=O)[nH]c1=O` [TdR, thymidine], the logP in series [1] is -0.8. In series [2] (octanol/water), the “Log P+” value was -1.12.
`O=c1[nH]c(=O)n([C@@H]2O[C@H](CO)[C@@H](O)[C@H]2F)cc1C=CI` [FIVRU, 2'-fluoro-5-iodovinyl-1-β-D-ribofuranosyl-uracil]: in series [1], the log partition coefficient (logP) is 1.21. For the same compound, the “lipophilicity and blood-brain barrier permeability compared with FIAU” value in series [2] is “higher lipophilicity and better permeability through the blood-brain barrier”. Moreover, the “PS*” value in series [3] is given as 13.03.
Turning to `O=c1[nH]c(=O)n([C@H]2C[C@H](O)[C@@H](CO)O2)cc1F` [5-FUdR], the lipophilicity (logP) in series [1] is -1.52. The “Log P+” value in series [2] (octanol/water) is recorded as -1.51. In series [3], the “PS*” value is 0.03 and the “PS+” value is reported as 0.03.
In the case of `CCc1cn([C@@H]2O[C@H](CO)[C@@H](O)[C@@H]2F)c(=O)[nH]c1=O` [FEAU, 2'-fluoro-5-ethyl-1-β-D-arabinofuranosyl-uracil], in series [2], the “lipophilicity and blood-brain barrier permeability compared with FIAU” value is “higher lipophilicity and better permeability through the blood-brain barrier”. In addition, the “PS+” value in series [3] is listed as 0.31.
`O=c1[nH]c(=O)n([C@@H]2O[C@H](CO)[C@@H](O)[C@@H]2F)cc1F` [FFAU, 2'-fluoro-5-fluoro-1-β-D-arabinofuranosyl-uracil] registered a logP in series [1] of -1.09. For the same compound, the “PS*” value in series [3] is given as 0.08.
On to `O=c1[nH]c(=O)n([C@H]2C[C@H](O)[C@@H](CO)O2)cc1/C=C/I` [5-IVdU], for which the “Log P*” value in series [1] is on record as 1.10. For the same compound, the “PS*” value in series [3] is reported as 10.29.
In the case of `O=c1[nH]c(=O)n([C@@H]2O[C@H](CO)[C@@H](O)[C@@H]2F)cc1C=CI` [FIVAU, 2'-fluoro-5-iodovinyl-1-β-D-arabinofuranosyl-uracil], the “lipophilicity and blood-brain barrier permeability compared with FIAU” value in series [2] was “higher lipophilicity and better permeability through the blood-brain barrier”.
Regarding `O=c1[nH]c(=O)n([C@H]2C[C@H](O)[C@@H](CO)O2)cc1I` [IUdR, 5-iodo-2'-deoxy-uridine], in series [4] (RG2TK+/RG2 i.c. tumors), the “Selectivity+ Sensitivity*/(uptake in RG2 tumor)” value is given as 0.009 and the “Sensitivity* (uptake in RG2TK+ tumor - uptake in RG2 tumor)/(HSV1TK mRNA/S28 RNA IOD in RG2TK+ cells)” value is listed as 0.0001. In series [4] (RG2TK+/RG2 s.c. tumors), the “Selectivity+ Sensitivity*/(uptake in RG2 tumor)” value was found to be 0.020 and the “Sensitivity* (uptake in RG2TK+ tumor - uptake in RG2 tumor)/(HSV1TK mRNA/S28 RNA IOD in RG2TK+ cells)” value stood at 0.0007. In addition, in series [5] (Data from FIG. 5), the “Selectivity+ Sensitivity*/(substrate/TdR) for RG2” value was 0.006 and the “Sensitivity* Δ(substrate/TdR)/Δ(HSV1TK mRNA/S28 RNA IOD)” value is given as 0.0029. The “accumulation in bulk RG2TK+ cells relative to wild-type RG2 cells” value in series [5] (normalized to TdR, FIGS. 4 and 5B) is reported as 1.2 fold. Moreover, the log partition coefficient (logP) in series [1] is -0.089. Moreover, the “Log P+” value in series [2] (setting [7]) is listed as -0.76. In series [6], the “Selectivity+ Sensitivity*/(substrate/TdR) for RG2” value amounted to 0.002 and the “Sensitivity* Δ(substrate/TdR)/Δ(HSV1TK mRNA/S28 RNA IOD)” value is 0.0011. Also, in series [3], the “PS*” value was 0.11 and the “PS+” value is 0.14.
`CC(C)(N)C(=O)O` [AIB]: the logP in series [1] was -2.48. The “PS+” value in series [3] was 0.00052.
As to `O=c1ccn([C@H]2C[C@H](O)[C@@H](CO)O2)c(=O)[nH]1` [UdR, 2-deoxyuridine], the logP in series [1] was -0.131. For the same compound, the “Log P+” value in series [2] (setting [7]) is -1.48. Also, in series [3], the “PS*” value is listed as 0.05 and the “PS+” value was 0.03.
Regarding `O=c1[nH]c(=O)n([C@@H]2O[C@H](CO)[C@@H](O)[C@H]2F)cc1F` [FFRU], the “PS*” value in series [3] is given as 0.02.
As for `O=C(O)CN(CCN(CC(=O)O)CC(=O)O)CCN(CC(=O)O)CC(=O)O` [DTPA], the logP in series [1] was -3.89. Further, in series [3], the “PS+” value is on record as 0.00009.
For the compound `CCc1cn([C@@H]2O[C@H](CO)[C@@H](O)[C@H]2F)c(=O)[nH]c1=O` [FERU, 5-ethyl-2'-fluoro-1-β-D-ribofuranosyl-uracil], the “lipophilicity and blood-brain barrier permeability compared with FIAU” value in series [2] was “higher lipophilicity and better permeability through the blood-brain barrier”.
With `O=c1[nH]c(=O)n([C@@H]2O[C@H](CO)[C@@H](O)[C@H]2F)cc1I` [FIRU, 2'-fluoro-5-iodo-1-β-D-ribofuranosyl-uracil], the “PS*” value in series [3] is 0.45.
